The values that follow come from PMC10468765, “Substituted 1,2,4-Triazoles as Novel and Selective Inhibitors of Leukotriene Biosynthesis Targeting 5-Lipoxygenase-Activating Protein” (ACS Omega, 2023).

In this test the test system is 5-lipoxygenase-activating protein (FLAP). The test is described as follows: cells. Details: species or system human neutrophils; Inhibition of 5-LO product formation (LTB4, its trans isomers, 5-H(p)ETE) in A23187-stimulated human neutrophils, FLAP-dependent assay. The conditions noted are these: Neutrophil; 2.5 uM A23187.
Turning to `COc1ccc(-n2c(OCc3ccc4ccccc4n3)nnc2-c2cccs2)cc1` [6o], half-maximal inhibition (IC50) was put at 6.34 ± 0.79 µM.
Then `COc1ccc(-n2c(SCc3ccc4ccccc4n3)nnc2-c2cccs2)cc1` [6j], with 3.69 ± 1.02 µM; and `COc1ccc(-n2c(SCc3nc4ccccc4s3)nnc2-c2cccs2)cc1` [6a], with 2.18 ± 0.65 µM; and `N#Cc1ccc(-c2nnc(SCc3nc4ccccc4s3)n2-c2ccccc2)cc1` [6z], with 1.93 ± 0.37 µM.
As to `COc1ccc(-n2c(OCc3nc4ccccc4s3)nnc2-c2cccs2)cc1` [6n], the half-inhibitory concentration (IC50) (as a rule, the concentration needed to halve the response being measured) turned out to be 3.01 ± 0.84 µM.
For `COc1ccc(-n2c(SCc3nc4ccccc4s3)nnc2-c2ccc(C#N)cc2)cc1` [6s], half-maximal inhibition (IC50) was put at 1.92 ± 0.58 µM.
In turn, `COc1ccc(-n2c(SCc3nc4ccccc4s3)nnc2-c2ccccc2)cc1` [6q] came in with an IC50 of 1.28 ± 0.19 µM.
Then `COc1cccc(-n2c(SCc3nc4ccccc4s3)nnc2-c2cccs2)c1` [6c], with 1.58 ± 0.59 µM; and `Clc1ccc(-n2c(SCc3nc4ccccc4s3)nnc2-c2cccs2)cc1` [6d], with 1.36 ± 0.27 µM.
Turning to `COc1cccc(-n2c(SCc3ccc4ccccc4n3)nnc2-c2cccs2)c1` [6k], half-maximal inhibition (IC50) required 4.17 ± 0.27 µM.
Next, `COc1ccc(-n2c(SCc3ccc(C(F)(F)F)o3)nnc2-c2cccs2)cc1` [6l]: 1.42 ± 0.31 µM.
